Data from patent US7528274B2, “Acylthiols and component thiol compositions as anti-HIV and anti-retroviral agents” (The United States of America as represented by the …, priority 2001, dated 2009).

test system: not listed separately; assay: XTT assay, cytotoxicity (cellular growth inhibition) in CEM-SS cells; assay type: cell-based; conditions: human
Excerpt: (§1) One exemplary means to determine antiviral activity is with CEM-SS cells and virus (e.g., HIV-1RF) (MOI=0.01) using the XTT (2,3-bis[2-methoxy-4-nitro-5-sulfophenyl]-5-[(phenylamino)carbonyl]-2H-tetrazolium hydroxide) cytoprotection assay, as described by Rice (1993) PNAS 90:9721-9724, and Rice (1997) Antimicrob. Agents Chemother. […] Briefly, cells are infected with HIV-1RF (or other virus to be tested) in the presence of various dilutions of test compounds or control compounds. The cultures are incubated for seven days. […] The cell death is measured by XTT dye reduction. XTT is a soluble tetrazolium dye that measures mitochondrial energy output, similar to MTT. […] Individual assays are done in duplicate using a sister plate method.
as §1, with “{2,3-bis[2-methoxy-4-nitro-5-sulfophenyl]-5- -[(phenylamino)carbonyl]-2H-tetrazolium hydroxide}” for “(2,3-bis[2-methoxy-4-nitro-5-sulfophenyl]-5-[(phenylamino)carbonyl]-2H-tetrazolium hydroxide)”, “Proc. Natl. Acad. Sci. USA 90: 9721-9724,” for “PNAS 90:9721-9724,”, “Agents &” for “Agents”, “and controls.” for “or control compounds.”, “method. […] Compound numbers therein refer to the numbers used in FIG. 1.” for “method.”

Row | Structure (SMILES) | IC50 at 7 days
1 | CCNC(=O)Sc1ccccc1C(=O)NCCC(N)=O [Compound 113] | 103 µM
2 | CCNC(=O)Sc1ccccc1C(=O)N[C@H](C)C(N)=O [Compound 114] | 86 µM
3 | CCOC(=O)CCNC(=O)Sc1ccccc1C(=O)NCCC(N)=O [Compound 115] | 117 µM
4 | CCOC(=O)CNC(=O)Sc1ccccc1C(=O)N[C@@H](C)C(N)=O [Compound 116] | 77.6 µM
5 | CCCCNC(=O)Sc1ccccc1C(=O)N[C@H](C)C(N)=O [Compound 117] | 32.2 µM
6 | CCCCNC(=O)Sc1ccccc1C(=O)NCCC(N)=O [Compound 118] | 38.7 µM
7 | CCCCCNC(=O)Sc1ccccc1C(=O)N[C@H](C)C(N)=O [Compound 119] | 54.4 µM
8 | CCCCCCNC(=O)Sc1ccccc1C(=O)N[C@H](C)C(N)=O [Compound 121] | 81 µM
9 | CCCCNC(=O)Sc1ccccc1C(=O)NCCS(N)(=O)=O [Compound 130] | 37 µM
10 | CSC(=N)Sc1ccccc1C(=O)N[C@@H](C)C(N)=O [Compound 136] | 20 µM
11 | CSC(=N)Sc1ccccc1C(=O)NCCC(N)=O [Compound 137] | 20 µM
12 | CSC(=N)Sc1ccccc1C(=O)NCC(N)=O [Compound 138] | 20 µM
13 | CSC(=N)Sc1ccccc1C(=O)N[C@H](C)C(N)=O [Compound 139] | 20 µM
14 | CC(C)(C)NC(=O)Sc1ccc(Cl)cc1C(=O)NCCC(N)=O [Compound 140] | 11.3 µM
15 | CC(C)COC(=O)Sc1ccc(Cl)cc1C(=O)NCCC(N)=O [Compound 141] | 20 µM
16 | CC(C)(C)NC(=O)Sc1ccccc1C(=O)NCC(N)=O [Compound 142] | 20 µM

test system: CEM-SS cells; assay: as above; assay type: cell-based; conditions: read-out: IC50 (50% cytotoxicity)
Excerpt: as §1
as §1, with “{2,3-bis[2-methoxy-4-nitro-5-sulfophenyl]-5- -[(phenylamino)carbonyl]-2H-tetrazolium hydroxide}” for “(2,3-bis[2-methoxy-4-nitro-5-sulfophenyl]-5-[(phenylamino)carbonyl]-2H-tetrazolium hydroxide)”, “Proc. Natl. Acad. Sci. USA 90: 9721-9724,” for “PNAS 90:9721-9724,”, “Agents &” for “Agents”, “and controls.” for “or control compounds.”, “method. […] Compound numbers therein refer to the numbers used in FIG. 1.” for “method.”

Row | Structure (SMILES) | IC50
17 | CC(C)(C)CC(C)(C)NC(=O)Sc1ccccc1C(=O)N1CC1C(N)=O (stereo not shown) [Compound 131] | 35.8 µM

test system: HIV-1RF; assay: XTT cytoprotection assay, CEM-SS cells infected with HIV-1RF; assay type: cell-based; conditions: HIV-1RF, CEM-SS cells
Excerpt: as §1
as §1, with “{2,3-bis[2-methoxy-4-nitro-5-sulfophenyl]-5- -[(phenylamino)carbonyl]-2H-tetrazolium hydroxide}” for “(2,3-bis[2-methoxy-4-nitro-5-sulfophenyl]-5-[(phenylamino)carbonyl]-2H-tetrazolium hydroxide)”, “Proc. Natl. Acad. Sci. USA 90: 9721-9724,” for “PNAS 90:9721-9724,”, “Agents &” for “Agents”, “and controls.” for “or control compounds.”, “method. […] Compound numbers therein refer to the numbers used in FIG. 1.” for “method.”

Row | Structure (SMILES) | Therapeutic Index
18 | CCNC(=O)Sc1ccccc1C(=O)NCCC(N)=O [Compound 113] | 148
19 | CCNC(=O)Sc1ccccc1C(=O)N[C@H](C)C(N)=O [Compound 114] | 203
20 | CCOC(=O)CCNC(=O)Sc1ccccc1C(=O)NCCC(N)=O [Compound 115] | 196
21 | CCOC(=O)CNC(=O)Sc1ccccc1C(=O)N[C@@H](C)C(N)=O [Compound 116] | 147
22 | CCCCNC(=O)Sc1ccccc1C(=O)N[C@H](C)C(N)=O [Compound 117] | 64
23 | CCCCNC(=O)Sc1ccccc1C(=O)NCCC(N)=O [Compound 118] | 74
24 | CCCCCNC(=O)Sc1ccccc1C(=O)N[C@H](C)C(N)=O [Compound 119] | 179
25 | CCCCCCNC(=O)Sc1ccccc1C(=O)N[C@H](C)C(N)=O [Compound 121] | 107
26 | CCCCNC(=O)Sc1ccccc1C(=O)NCCS(N)(=O)=O [Compound 130] | 0.12
27 | CC(C)(C)CC(C)(C)NC(=O)Sc1ccccc1C(=O)N1CC1C(N)=O (stereo not shown) [Compound 131] | 80
28 | CSC(=N)Sc1ccccc1C(=O)N[C@@H](C)C(N)=O [Compound 136] | 28.6
29 | CSC(=N)Sc1ccccc1C(=O)NCCC(N)=O [Compound 137] | 28.2
30 | CSC(=N)Sc1ccccc1C(=O)NCC(N)=O [Compound 138] | 31.7
31 | CSC(=N)Sc1ccccc1C(=O)N[C@H](C)C(N)=O [Compound 139] | 37.7
32 | CC(C)(C)NC(=O)Sc1ccc(Cl)cc1C(=O)NCCC(N)=O [Compound 140] | 7.1
33 | CC(C)COC(=O)Sc1ccc(Cl)cc1C(=O)NCCC(N)=O [Compound 141] | 17.7
34 | CC(C)(C)NC(=O)Sc1ccccc1C(=O)NCC(N)=O [Compound 142] | 2.9

same assay, conditions: Human immunodeficiency virus 1, 168 h, read-out: EC50 (50% cytoprotection); HIV-1RF, CEM-SS cells, seven days, XTT

Row | EC50 | Structure (SMILES)
35 | 0.69 µM | CCNC(=O)Sc1ccccc1C(=O)NCCC(N)=O [Compound 113]
36 | 0.42 µM | CCNC(=O)Sc1ccccc1C(=O)N[C@H](C)C(N)=O [Compound 114]
37 | 0.53 µM | CCOC(=O)CNC(=O)Sc1ccccc1C(=O)N[C@@H](C)C(N)=O [Compound 116]
38 | 0.51 µM | CCCCNC(=O)Sc1ccccc1C(=O)N[C@H](C)C(N)=O [Compound 117]
39 | 0.76 µM | CCCCCCNC(=O)Sc1ccccc1C(=O)N[C@H](C)C(N)=O [Compound 121]
40 | 1.6 µM | CC(C)(C)NC(=O)Sc1ccc(Cl)cc1C(=O)NCCC(N)=O [Compound 140]
41 | 1.13 µM | CC(C)COC(=O)Sc1ccc(Cl)cc1C(=O)NCCC(N)=O [Compound 141]
42 | 6.9 µM | CC(C)(C)NC(=O)Sc1ccccc1C(=O)NCC(N)=O [Compound 142]

The next lines start with the molecule.

Row | Structure (SMILES) | EC50
43 | CCOC(=O)CCNC(=O)Sc1ccccc1C(=O)NCCC(N)=O [Compound 115] | 0.59 µM
44 | CCCCNC(=O)Sc1ccccc1C(=O)NCCC(N)=O [Compound 118] | 0.53 µM
45 | CCCCCNC(=O)Sc1ccccc1C(=O)N[C@H](C)C(N)=O [Compound 119] | 0.3 µM
46 | CCCCNC(=O)Sc1ccccc1C(=O)NCCS(N)(=O)=O [Compound 130] | 304 µM
47 | CSC(=N)Sc1ccccc1C(=O)N[C@@H](C)C(N)=O [Compound 136] | 0.7 µM
48 | CSC(=N)Sc1ccccc1C(=O)NCCC(N)=O [Compound 137] | 0.71 µM
49 | CSC(=N)Sc1ccccc1C(=O)NCC(N)=O [Compound 138] | 0.63 µM
50 | CSC(=N)Sc1ccccc1C(=O)N[C@H](C)C(N)=O [Compound 139] | 0.53 µM

same assay, conditions: read-out: EC50 (50% cytoprotection); HIV-1RF, CEM-SS cells, seven days, XTT

Row | EC50 | Structure (SMILES)
51 | 0.45 µM | CC(C)(C)CC(C)(C)NC(=O)Sc1ccccc1C(=O)N1CC1C(N)=O (stereo not shown) [Compound 131]

test system: HIV-1 virus; assay: Infectivity of treated virions, PCR assay for intracellularly-synthesized viral RNA; assay type: cell-based; conditions: not given
Excerpt: The treated virions can also be tested for infectivity. The virions are suspended in media (rather than solubilized) and added to target cells. The cultures are then examined to determine whether the virions are still active. To determine whether the treated virus particles are active, the cells are monitored for the presence of intracellularly-synthesized viral RNA using, for example, the polymerase chain reaction (PCR) (Rice (1993) Proc. Natl. Acad. Sci. USA 90:9721; Turpin (1996) J. Virol. 70:6180). Alternatively, cytoprotection assays can be used (Weislow (1993) J. Natl. Cancer Inst. 81:577). An example of a compound which can be used as a control in the gel mobility shift assay is azodicarbonamide (ADA), a compound which is commercially available from the Aldrich Chemical Company (Milwaukee, Wis.).

Row | Structure (SMILES) | Inactivation of HIV-1 virus
52 | NC(=O)N=NC(N)=O [ADA, azodicarbonamide] | inactivates HIV-1 virus
